Experimental data from US7368287B2, “Use of L-α-lysophosphatidylcholine to obtain the differentiation of monocytes into mature dendritic cells in vitro” (Biomerieux, priority 2002, dated 2008).

What was measured:
[1] = system: monocytes isolated from human peripheral blood; assay: Internalization capacity (endocytosis, pinocytosis, macropinocytosis) of differentiated monocytes; type: cell-based; details: control = 100%
Procedure: The “control” and “LPC” cells used in this analysis are those obtained after 6 days of differentiation according to the protocol described in example 1. These cells are incubated at 37° C.: • for 30 minutes with 1 mg/ml of FITC-T70-Dextran (Sigma) in order to estimate the capacity of these cells for internalization by endocytosis, • for 30 minutes with 1 mg/ml of Lucifer Yellow (ref. L0259, Sigma, St Quentin-Fallavier, France) in order to estimate the capacity of these cells for internalization by pinocytosis, • for 3 hours with carboxylate-modified yellow-green FluoSpheres (trade name, 0.45 μm, Molecular Probes, Leiden, The Netherlands) in order to estimate the capacity of these cells for internalization by macropinocytosis.
The internalization is stopped on ice with a cold PBS buffer containing 0.1% of BSA (Bovine Serum Albumin) and 0.05% of NaN3. The “control” and “LPC” cells are washed 3 times at 4° C. in this same buffer and the fluorescence is quantified by FACScalibur (trade name, Becton Dickinson).

BALB/c mice [2] = assay: Inflammation of the plantar foot pad (thickening of the foot); type: in vivo, mouse; details: after 24 h
Procedure: LPC is an inflammatory product—In this example, a solution of 100 to 500 nmol of LPC dissolved in 50 μl of PBS is injected into the plantar foot pad of BALB/c mice (Charles River Laboratories) on day 0. The plantar foot pads are measured using a micrometer before and after injection, up to the 10th day, and compared to the plantar foot pads of “control” mice, obtained by injection of PBS (50 μl). The intensity of the inflammation is reflected by the thickening of the foot. The maximum thickening is observed on the 1st day, 24 h after the injection.
INTRALIPID® blocks the inflammation and the immune response induced by LPC, in vivo. In this example, 3 batches of BALB/c mice are immunized against the hen egg lysozyme (HEL) antigen by injection of 50 μl of solution into the plantar foot pad. The “HEL” control batch receives 50 μg of HEL, the “HEL+Intralipid” batch receives a mixture of INTRALIPID® (45 μl) and of 50 μg of HEL (5 μl of a solution at 10 mg/ml). The “HEL+LPC” batch receives 50 μg of HEL with 350 nmol of LPC dissolved in PBS. The “HEL+LPC+Intralipid” batch receives 50 μg of HEL mixed with 350 nmol of LPC dissolved in 45 μl of INTRALIPID®. After 24 hours, the thickness of the foot pads is measured using a micrometer, and compared with the measurement taken before injection. The difference in thickness is proportional to the intensity of the inflammation.

PAF receptor = assay: CD86 expression in presence of PAF or of the PAF antagonist BN52021; type: cell-based, human
Procedure: (§1) The phenotype of the “control” and “LPC” cells is analyzed by flow cytometry on a FACSCalibur (Becton Dickinson, Francklin Lakes, N.J., USA) using FITC (fluorosceine isothiocyanate)-conjugated anti-CD14, anti-HLA-DR and anti-CD80 and PE (phycoerythrin)-conjugated anti-CD1a, anti-CD83, anti-CD86 and anti-CD40 (Beckman Coulter). According to the state of the art, monocytes preferentially have a CD14+ CD1a− phenotype, immature dendritic cells preferentially have a CD14− CD1a+CD86− phenotype, and mature dendritic cells preferentially have a CD14− CD1a intermediate—CD86+ phenotype.
Thus, a solution of PAF (Sigma, 5 μM) was added to the culture medium on the 5th day of monocyte differentiation. The expression of CD86 by the “control” cells and by the “LPC” cells, obtained in the presence or in the absence of PAF, was analyzed according to the protocol described in example 2, and the results are given in table 9.
Thus, a solution of the PAF antagonist BN52021 (Biomol, Plymouth Meeting, USA, 100 μM) was added to the culture medium on the 5th day of monocyte differentiation. The expression of CD86 by the “control” and “LPC” cells, obtained in the presence or in the absence of BN52021, was analyzed according to the protocol described in example 2, and the results are given in table 10.

[3] = system: Gi protein-coupled receptors; assay: Induction of CD86 by LPC after preincubation with pertussis toxin; type: cell-based, human; details: LPC cells = 100%; PTX 100 ng/ml for 3 hours before LPC
Procedure: as §1
Initially, in order to determine whether the receptors involved in the action of LPC in the differentiation of monocytes into mature dendritic cells belonged to the family of G protein-coupled receptors, PTX (pertussis toxin; 100 ng/ml), known to block Gi proteins, was added to the culture medium for 3 hours. The culture medium was then changed and the LPC was added as described in example 1.

BALB/c mice [4] = assay: HEL-specific IgG in serum by ELISA after immunization; type: in vivo, mouse; details: LPC 350 nmol co-injected with HEL, booster after 15 days; FIG. 1
Procedure: LPC stimulates the production of specific antibodies against a co-injected soluble antigen. LPC dissolved in PBS (350 nmol in 50 μl) is mixed with hen egg lysozyme (HEL, 1 mg/ml) and this mixture is injected into the plantar foot pad of BALB/c mice. The “HEL+LPC” batch of mice receives 50 μl of this mixture in the foot pads of the two hind feet. The “HEL” batch of mice receives 50 μl of HEL solution (1 mg/ml in PBS) in the two feet. After 15 days, a booster injection is given subcutaneously on the 2 flanks. The “HEL+LPC” batch receives, on each flank, 100 μl of a solution of LPC (5 mM) and of HEL (1 mg/ml) in PBS. The “HEL” batch receives, on each flank, 100 μl of a solution of HEL (1 mg/ml) in PBS. Two weeks later, blood is taken from the mice and the IgGs specific for the HEL antigen are assayed by ELISA with respect to a standard IgG solution range. The titration curves giving the absorbance (Abs) as a function of the logarithm of the serum dilution are represented in FIG. 1.

NF-κB = details: high concentration of LPC (50 μM); cited from earlier work

L-α-lysophosphatidylcholine [LPC]
Capacity for internalization by endocytosis ([1]; FITC-T70-Dextran 30 minutes): 53%
Capacity for internalization by macropinocytosis ([1]; FluoSpheres 3 hours): 66%
Capacity for internalization by pinocytosis ([1]; Lucifer Yellow 30 minutes): 49%
Thickening of the foot (BALB/c mice [2]; LPC 100 nmol in 50 μl PBS into plantar foot pad): 0.35 mm
Thickening of the foot (BALB/c mice [2]; LPC 200 nmol): 0.55 mm
Thickening of the foot (BALB/c mice [2]; LPC 300 nmol): 0.725 mm
Thickening of the foot (BALB/c mice [2]; LPC 400 nmol): 1.125 mm
Thickening of the foot (BALB/c mice [2]; LPC 500 nmol): 1.075 mm
Expression of CD86 (PAF receptor; LPC cells = 100%, BN52021 100 μM added on 5th day): 100%
Expression of the CD86 marker (mean fluorescence intensity) (PAF receptor; PAF 5 μM and/or LPC added on 5th day): 287.11
Increase in the expression of CD86 (PAF receptor; versus control cells, PAF 5 μM and/or LPC): 470%
Induction of CD86 [3]: 100%
Production of IgGs specific for the HEL antigen (BALB/c mice [4]): induces the synthesis of antibodies specific for the antigen
Activity of the transcription factor NF-κB (NF-κB): inhibits
